Test results as given in US20240139197A1, “INHIBITION OF KDM5A FOR PROMOTING ANTIGEN PRESENTATION, INCREASING CD8+ T CELL INFILTRATION AND BOOSTING ANTI-TUMOR IMMUNE RESPONSE” (The Wistar Institute of Anatomy and Biology, priority 2022, published 2024).

Tests used:
HGSOC cell lines = test: dose response by colony formation assay in HGSOC/EOC cell lines; type: cell-based, human; conditions: panel of EOC cell lines, regardless of KDM5A expression status, dose response curve
From the text: FIG. 5A-FIG. 5G show KDM5A is overexpressed in HGSOC and its expression negatively correlates with infiltration of CD8+ T cells. (FIG. 5A) Correlation between KDM5A and CD8A expression in the TCGA HGSOC dataset. (FIG. 5B) Correlation between KDM5A and CD8A expression in a published laser capture and microdissected (LCM) HGSOC dataset. (FIG. 5C) Correlation between KDM5A and PRFI expression in the TCGA HGSOC dataset. (FIG. 5D) Representative images of KDM5A IHC staining of HGSOC in a tumor microarray. (FIG. 5E) Relative expression of KDM5A in LCM of HGSOC and normal human ovarian surface epithelial cells (HOSE) or fallopian tube epithelial cells (FTE). (FIG. 5F) Expression of KDM5A and a loading control β-actin in the indicated FTE cells and HGSOC cell lines determined by immunoblot. (FIG. 5G) Dose response curves to KDM5A inhibitor CPI-455 determined by colony formation assay in the indicated HGSOC cell lines. Data represent mean±SEM; P values were calculated by using a two-tailed Student t test except in FIG. 5A and FIG. 5B by using Pearson r analysis.
Insulin/Transferrin/Selenium (Invitrogen, Cat #51300), […] Hydrocortisone (Sigma, Cat #H0135), 10 ng/ml Murine epidermal growth factor (Sigma, Cat #E4127) and 1% penicillin/streptomycin at 37° C.with 5% CO2. […]

H2-K1 in ID8 cells = test: H2-K1 expression by RT-qPCR; type: cell-based, mouse; conditions: ID8, with IFNγ treatment
From the text: FIG. 4A-FIG. 4M show KDM5A regulates antigen processing and presentation pathway. (FIG. 4A) Experimental strategy used to identify Kdm5a direct target genes. […] (FIG. 4B) CUT&RUN tracks of the newly identified Kdm5a target gene H2-K1 for Kdm5a and H3K4me3 in ID8 cells. (FIG. 4C) Expression of H2-K1 in doxycycline-inducible shKdm5a ID8 cells, Kdm5a inhibitor CPI-455, or Kdm5a knockout cells with or without IFNγ stimulation determined by RT-qPCR. (FIG. 4D) Cell surface expression of H2-K1 in control and Kdm5a knockout ID8 cells with or without IFNy stimulation was determined by FACS analysis. (FIG. 4E) Quantification of FIG. 4D. (FIG. 4F) Cell surface expression of H2-K1 in control and doxycyclineinducible Kdm5a-knockdown ID8 cells with or without IFNγ stimulation was determined by FACS analysis. (FIG. 4G) Quantification of FIG. 4F. (FIG. 4H) Cell surface expression of H2-K1 in D8 cells treated with vehicle or CPI-455 with or without IFNγ stimulation was determined by FACS analysis. (FIG. 4I) Quantification of FIG. 4H; An isotype matched IgG was used as a negative control for all the FACS analysis. […] Data represent mean±SEM of three biological repeats; P-value was calculated by using a two-tailed Student t test except in FIG. 4L by using Pearson r analysis test and FIG. 4M by using Fisher's exact test. […]

Substance: CPI-455
- cell viability in vitro (HGSOC cell lines): did not affect cell viability
- expression of H2-K1 (H2-K1 in ID8 cells): upregulated
